Assay results as given in patent US20190210969A1, “INTRAESOPHAGEAL ADMINISTRATION OF TARGETED NITROXIDE AGENTS FOR PROTECTION AGAINST IONIZING IRRADIATION-INDUCED ESOPHAGITIS” (University of Pittsburgh - Of the Commonwealth System of …, priority 2010, published 2019).

Experiments:
Assay type in all cases: in vivo, mouse
[1] = system: mice exposed to total body irradiation; assay: Survival of mice after total body irradiation; conditions: for protection from death: vs TEMPO or F14 alone, preliminary data
Description: In FIG. 4A, mice received intraperitoneal injection of 10 mg per kilogram of each of the chemicals indicated, then 24 hours later received 9.75 Gy total body irradiation according to published methods. Mice were followed for survival according to IACUC regulations. […] (P=0.0008). In FIG. 4B, mice received intraperitoneal injection of JP4-039 either 10 minutes before (square symbols) or 4 hours after (triangle symbols) irradiation with 9.75 Gy.
Groups of 15 mice received intraperitoneal injection of 10 mg. per kilogram of each indicated GS-nitroxide compound or carrier (Cremphora plus alcohol at 1 to 1 ratio, then diluted 1 to 10 in distilled water). Mice received 10 mg per kilogram intra-peritoneal injection 24 hours prior to total body irradiation. Control mice received radiation alone. […] (P=0.0005) FIG. 6 is a graph showing that GS-nitroxide JP4-039 is an effective hematopoietic cell radiation mitigator when delivered 24 hr after irradiation. Irradiation survival curves were performed on cells from the 32D cl 3 mouse hematopoietic progenitor cell line, incubated in 10 μM JP4-039 for 1 hour before irradiation, or plated in methylcellulose containing 10 μM […] after irradiation. Cells were irradiated from 0 to 8 Gy, plated in 0.8% methylcellulose containing media, and incubated for 7 days at 37° C. Colonies of greater than 50 cells were counted and data analyzed by linear quadratic and single-hit, multi-target models.
The above methods are based on preliminary data showing that JP4-039 administered via i.p. injection at 10 mg/kg 10 minutes before either […] [FIG. 21A] or 9.15 Gy [FIG. 21B] total-body irradiation protected C57BL/6NHsd female mice from esophagitis-induced death compared to those that received either TEMPO or F14 alone (p=0.0301 and p=0.010, respectively).

[2] = system: C57BL/6NHsd mice, upper body irradiation; assay: Survival after upper body (thoracic) irradiation, irradiation-induced esophagitis; conditions: for protection (survival): 4 μg JP4-039 in 110 μl F15 10 minutes before, MnSOD-PL 24 hours prior, preliminary data
From the text: Animals and animal care. C57BL/6HNsd female and C57BL/6JHNsd-GFP male mice (22-22 gm) were housed, five per cage and fed standard laboratory chow according to previous publications (3). C57BL/6NHsd mice (15 per group) were irradiated (details are given in the next section) and received swallowed JP4-039 or MnSOD-PL pre- or post-radiation. The mice were monitored for development of esophagitis.
Irradiation. Mice were irradiated to 28 or 29 Gy to the upper body using a JL Shepherd Mark I cesium irradiator (J.L. Shepherd and Associates, San Fernando, Ca, USA) ([…]), according to published methods (Epperly M W, et al. Zhang X, Nie S, Cao S, Kagan V, Tyurin V and Greenberger J S: MnSOD-plasmid liposome gene therapy effects on ionizing irradiation induced lipid peroxidation of the esophagus. In Vivo 19: 997-1004, 2005). The head and abdomen were shielded, as described previously (Stickle R L, et al. Prevention of irradiation-induced esophagitis by plasmid/liposome delivery of the human manganese superoxide dismutase (MnSOD) transgene. Radiat Oncol Invest Clinical & Basic Res 7: 204-217, 1999), so that only the thoracic cavity received irradiation.
Intraesophageal drug administration. The methods for preparation of MnSOD-plasmid liposomes using PNVL3 lipid have been published previously (Epperly M W, et al. Modulation of radiation-induced cytokine elevation associated with esophagitis and esophageal stricture by manganese superoxide dismutase-plasmid/liposome (MnSOD-PL) gene therapy. Radiat Res 155: 2-14, 2001). Briefly, 100 μl liposomes containing […] plasmid were injected by syringe intraesophageally into non-anesthetized mice immediately after they received 100 μl distilled water.
The stock solutions described above were diluted, so that the total amount of JP4-039 administered to each animal was 400 μg. Mice were immobilized for irradiation with intraperitoneal Nembutal anesthesia after administration of JP4-039 as described above. Mice were exposed to single-dose (29 Gy) or fractionated radiation (11.5 Gy per day for four days) to the upper body.

[3] = JP4-039 content of sorted esophageal SP and NSP cells (EPR); conditions: 20 esophagi excised 10 minutes after intraesophageal delivery
Description: Ten minutes after administration of JP4-039, esophagi were removed, minced, and incubated in a solution of 0.2% Collagenase type II, 0.3% Dispase and 0.025% Trypsin for 45 minutes at 37 degrees Celsius. Cell aggregates were then passed through sequentially smaller needles (to 23-gauge) and filtered with a […] cell strainer into DMEM supplemented with 40% fetal bovine serum. Suspensions were pelleted via centrifugation and resuspended at 10^6 cells/ml in pre-warmed DMEM (2% FBS, 10 mM HEPES). Cells were incubated in 6 μg/ml Hoechst 33342 for 90 minutes to identify SP cells. Verapamil, which inhibits the efflux of Hoechst, was used as a concentration of 50 μM for the purpose of cell gating. Cells were pelleted and resuspended in cold Hank's Balanced Salt Solution (HBSS) (2% FBS, 10 mM HEPES) and incubated with anti-CD45-phycoerythrin (PE)-fluorescein isothiocyanate (FITC) and/or anti-Ter119-PE-Cy7 antibodies at 1:200 dilutions, to discriminate hematopoietic cells. Antibody-treated cells were incubated on ice for 20 minutes, washed in cold HBSS, filtered, pelleted, and resuspended in cold HBSS. […] SP and NSP cells were quantified, sorted into separate collection tubes containing cold HBSS (2% FBS, 10 mM HEPES) and pelleted. […] JP4-039 content in sorted SP and NSP cells was quantified by electron paramagnetic resonance (EPR) analysis using a JEOL-RE1XEPR spectrometer. […]

[4] = system: Lewis lung carcinoma cells (3LL); assay: Irradiation of mice with orthotopic 3LL lung tumors
From the text: A separate group of mice received intratracheal administration of 1×10^6 Lewis lung carcinoma cells (3LL) seven days prior to administration of JP4-039, followed immediately by excision of lung tissue to calculate JP4-039 uptake by cancer cells.
This dose of irradiation was chosen to reduce tumor growth but was below the level required for lethal esophagitis. […] Control tumor-bearing mice received no irradiation.

Which results are given for `CC(C)C[C@@H](/C=C/CC(=O)NC1CC(C)(C)N([O])C(C)(C)C1)NC(=O)OC(C)(C)C` [JP4-039, TEMPO-4-yl-(S,E)-5-(tert-butoxycarbonylamino)-7-methyloct-3-enamide]?
protection from death ([1]; 10 mg/kg i.p. 10 minutes before 9/5 Gy total-body irradiation, p=0.0301): protected; protection from death ([1]; 10 mg/kg i.p. 10 minutes before 9.15 Gy total-body irradiation, p=0.010): protected; survival of mice ([1]; 10 mg/kg i.p. 24 hours before 9.75 Gy total body irradiation, vs irradiated control, P=0.0008): significant increase in survival; survival of mice ([1]; 10 mg/kg i.p. 24 hours prior to 9.5 Gy total body irradiation, P=0.0005): increases survival; survival ([2]; 400 μg in F15 immediately prior to single fraction 29 Gy thoracic irradiation, vs F15 vehicle only, p=0.0384): increased survival; protection (survival) ([2]; 29 Gy upper body irradiation, vs F15 or radiation alone): protective; protection (survival) ([2]; four daily sessions of 12 Gy, p=0.0430): protective; survival ([2]; prior to each of four fractions of 11.5 Gy thoracic irradiation, vs F15 only, p=0.0388): increased survival; JP4-039 content of sorted SP cell pellet ([3]; 101,00 SP cells): 275.1 fmol; JP4-039 content of sorted NSP cells ([3]; 3,387,00 NSP cells): 221.3 fmol; protection of orthotopic 3LL cells from irradiation ([4]; 4 μg in 110 μl F15, 10 minutes before 0 or 15 Gy upper-body irradiation): did not protect 3LL cells from irradiation; survival of 3LL tumor-bearing mice compared to F15 alone ([4]; prior to 20 Gy thoracic irradiation, p=0.3693): did not survive significantly differently
